Measurements published in US20100130737A1, “Regulating Agent of GPR34 Receptor Function” (TAKEDA PHARMACEUTICAL COMPANY LIMITED, priority 2005, published 2010).

Experiments:
human GPR34 = human GPR34 (Homo sapiens, UniProt Q9UPC5); assay: Human GPR34 antagonist activity indicated by changes in intracellular calcium concentration (FLIPR); type: cell-based; set-up: expressed in transfected cells; host or cells: CHO cells (human GPR34CHO line) stably transfected with pCR3.1 human lung Gα16; settings: CHO cells expressing human GPR34/Gα16, against 2 μM lysoPS final concentration, Fluo-3AM
human GPR34, sequence (Q9UPC5 whole entry): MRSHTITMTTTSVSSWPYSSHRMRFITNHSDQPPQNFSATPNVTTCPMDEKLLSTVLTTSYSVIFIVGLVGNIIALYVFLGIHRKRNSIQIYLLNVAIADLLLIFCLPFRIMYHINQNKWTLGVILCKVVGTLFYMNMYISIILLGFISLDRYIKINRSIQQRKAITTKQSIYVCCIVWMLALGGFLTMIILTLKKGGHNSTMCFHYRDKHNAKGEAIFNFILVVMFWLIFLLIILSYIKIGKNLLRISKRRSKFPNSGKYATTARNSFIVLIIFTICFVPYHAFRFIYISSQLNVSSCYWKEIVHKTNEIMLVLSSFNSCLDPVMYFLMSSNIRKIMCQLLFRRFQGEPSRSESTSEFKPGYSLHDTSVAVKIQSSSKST
Description: CHO cells expressing human GPR34/Gα were diluted to 3×10^4/100 μl in cell culture medium [nucleic acid-free Minimum Essential Alpha Medium (Invitrogen) containing 10% dialyzed fetal bovine serum (Invitrogen) 0.5 mg/ml Geneticin (Invitrogen), penicillin and streptomycin (Invitrogen)], dispensed 100 μl per well into a Black walled 96-well plate (Costar), and cultured overnight in a CO2 incubator. Changes in intracellular calcium concentration were measured with a FLIPR (Molecular Device) by the methods described below.
50 μg of Fluo-3AM (Dojindo) was dissolved in 21 μl of DMSO (Dojindo), an equal amount of 20% pluronic acid (Molecular Probes) was added and mixed, and this was added to 10.6 ml of assay buffer [prepared by adding 20 ml of 1 M HEPES (pH 7.4, Dojindo) to HBSS (Invitrogen), and then adding 10 ml of a solution obtained by dissolving 710 mg of Probenecid (Sigma) in 5 ml of 1 N NaOH and then adding and mixing 5 ml of the HBSS/HEPES solution)] with 105 μl of fetal bovine serum added thereto to prepare a fluorescent dye solution. The medium was removed from the cell plate, 100 μl per well of the fluorescent dye solution was immediately poured in, and the cells were cultured for 1 hour in a CO2 incubator to incorporate the fluorescent dye into the cells. After culture, the cells were washed with the aforementioned assay buffer. The compound was dissolved in DMSO (Wako Pure Chemical), diluted with DMSO as necessary, added to the aforementioned assay buffer to the target concentration and poured into the plate. To measure antagonist activity, 8 μM lysophosphatidyl serine (lysoPS, Alexis) solution (2 μM final concentration during reaction) was poured into the plate, which was set in the FLIPR. Following these preliminaries, the agonist effect was measured in the FLIPR by measuring changes in intracellular calcium concentration up to 180 seconds after addition of the sample, and after 200 seconds lysoPS was added and the antagonist effect was measured. In the case of the agonist effect, the EC50 value of the added compound was calculated from the dose reaction curve using changes in fluorescent strength from 0 to 180 seconds after the start of the reaction. In the case of the antagonist effect, the IC50 was calculated from the dose reaction curve using changes in maximum fluorescent strength after 200 to 380 seconds of reaction time. The data was analyzed using “GraphPad PRISM4”.

Question: Which IC50 (human GPR34) does the source give for `O=C(N[C@@H](Cc1ccc(OCc2ccccc2)cc1)C(=O)O)c1cc2cc(-c3ccc(Cl)cc3)ccc2[nH]1` [Example C165, O-Benzyl-N-{[5-(4-chlorophenyl)-1H-indol-2-yl]carbonyl}tyrosine] here?
Answer: ≤ 1000 nM

Question: What about the melting point of the same compound?
Answer: 239 to 240 °C

Question: For `Cn1c(C(=O)N[C@@H](Cc2ccc(OCc3ccccc3)cc2)C(=O)O)cc2cc(-c3ccc(Cl)cc3)ccc21` [Example C166, O-Benzyl-N-{[5-(4-chlorophenyl)-1-methyl-1H-indol-2-yl]carbonyl}tyrosine], which IC50 (human GPR34) is on record?
Answer: ≤ 1000 nM

Question: What about the melting point of the same compound?
Answer: 238 to 239 °C

Question: Which IC50 (human GPR34) does the source give for `O=C(N[C@@H](Cc1ccc(OCc2ccccc2)cc1)C(=O)O)c1nc2ccc(-c3ccc(Cl)cc3)cc2[nH]1` [Example C167, O-Benzyl-N-{[6-(4-chlorophenyl)-1H-benzimidazol-2-yl]carbonyl}tyrosine] here?
Answer: ≤ 1000 nM

Question: And the melting point?
Answer: 260 to 261 °C

Question: With `O=C(/C=C/c1cccc(-c2ccc(Cl)cc2)c1)N[C@@H](Cc1ccc(OCc2ccccc2)cc1)C(=O)O` [Example D1, O-Benzyl-N-[(2E)-3-(4′-chlorobiphenyl-3-yl)propa-2-enoyl]tyrosine] as the compound, how does the IC50 (human GPR34) read?
Answer: ≤ 1000 nM

Question: What about the melting point of the same compound?
Answer: 194 to 195 °C

Question: For `O=C(/C=C/c1ccc(-c2ccc(Cl)cc2)cc1)N[C@@H](Cc1ccc(OCc2ccccc2)cc1)C(=O)O` [Example D2, O-Benzyl-N-[(2E)-3-(4′-chlorobiphenyl-4-yl)propa-2-enoyl]tyrosine], which IC50 (human GPR34) is on record?
Answer: ≤ 1000 nM

Question: And the melting point?
Answer: 253 to 254 °C

Question: Which IC50 (human GPR34) does the source give for `O=C(N[C@@H](Cc1ccc(OCc2ccccc2)cc1)C(=O)O)c1cn2cc(-c3ccc(Cl)cc3)ccc2n1` [Example E1, O-Benzyl-N-{[6-(4-chlorophenyl)imidazo[1,2-a]pyridin-2-yl]carbonyl}tyrosine] here?
Answer: ≤ 1000 nM

Question: And the melting point?
Answer: 270 to 271 °C

Question: Which IC50 (human GPR34) does the source give for `O=C(N[C@@H](Cc1ccc(OCc2ccccc2)cc1)C(=O)O)c1cn2nc(-c3ccc(Cl)cc3)ccc2n1` [Example E3, O-Benzyl-N-{[6-(4-chlorophenyl)imidazo[1,2-b]pyridazin-2-yl]carbonyl}tyrosine] here?
Answer: ≤ 1000 nM

Question: And the melting point?
Answer: 242 to 243 °C

Question: With `O=C(N[C@@H](Cc1ccc(NCc2ccccc2)cc1)C(=O)O)c1cn2cc(-c3ccc(Cl)cc3)ccc2n1` [Example E5, 4-(Benzylamino)-N-([6-(4-chlorophenyl)imidazo[1,2-a]pyridin-2-yl]carbonyl}phenylalanine] as the compound, how does the IC50 (human GPR34) read?
Answer: ≤ 1000 nM

Question: What about the melting point of the same compound?
Answer: 260 °C

Question: With `O=C(N[C@@H](Cc1ccc(OCc2ccccc2)cc1)C(=O)O)c1cn2c(-c3ccc(Cl)cc3)cccc2n1` [Example E9, O-Benzyl-N-{[5-(4-chlorophenyl)imidazo[1,2-a]pyridin-2-yl]carbonyl}tyrosine] as the compound, how does the IC50 (human GPR34) read?
Answer: ≤ 1000 nM

Question: What about the melting point of the same compound?
Answer: 218 °C

Question: Which results are given for `CN(C(=O)c1cn2cc(-c3ccc(Cl)cc3)ccc2n1)[C@@H](Cc1ccc(OCc2ccccc2)cc1)C(=O)O` [Example E12, O-Benzyl-N-{[6-(4-chlorophenyl)imidazo[1,2-a]pyridin-2-yl]carbonyl}-N-methyltyrosine]?
Answer: IC50 (human GPR34): ≤ 1000 nM; melting point: 216 °C

Question: With `O=C(N[C@@H](Cc1ccc(OCc2ccccc2)cc1)C(=O)O)c1cc2nccc(-c3ccc(Cl)cc3)n2n1` [Example E16, O-Benzyl-N-{[7-(4-chlorophenyl)pyrazolo[1,5-a]pyrimidin-2-yl]carbonyl}tyrosine] as the compound, how does the IC50 (human GPR34) read?
Answer: ≤ 1000 nM

Question: What about the melting point of the same compound?
Answer: 102 to 103 °C

Question: With `O=C(N[C@@H](Cc1ccc(OCc2ccccc2)cc1)C(=O)O)c1cn2cc(-c3ccccc3F)ccc2n1` [Example E19, O-Benzyl-N-{[6-(2-fluorophenyl)imidazo[1,2-a]pyridin-2-yl]carbonyl}tyrosine] as the compound, how does the IC50 (human GPR34) read?
Answer: ≤ 1000 nM

Question: And the melting point?
Answer: 238 °C

Question: Which IC50 (human GPR34) does the source give for `O=C(N[C@@H](Cc1ccc(OCc2ccccc2)cc1)C(=O)O)c1cn2nc(C#Cc3ccccc3)ccc2n1` [Example E22, O-Benzyl-N-{[6-(phenylethynyl)imidazo[1,2-b]pyridazin-2-yl]carbonyl}tyrosine] here?
Answer: ≤ 1000 nM

Question: What about the melting point of the same compound?
Answer: 224 to 227 °C

Question: With `CS(=O)(=O)NC(=O)[C@H](Cc1ccc(OCc2ccccc2)cc1)NC(=O)c1cn2cc(-c3ccc(Cl)cc3)ccc2n1` [Example E23, O-Benzyl-Nα-{[6-(4-chlorophenyl)imidazo[1,2-a]pyridin-2-yl]carbonyl}-N-(methylsulfonyl)tyrosinamide] as the compound, how does the IC50 (human GPR34) read?
Answer: ≤ 1000 nM

Question: And the melting point?
Answer: 232 °C

Question: Which results are given for `O=C(N[C@@H](Cc1ccc(OCc2ccccc2)cc1)C(=O)O)c1cn2cc(-c3ccccc3Cl)ccc2n1` [Example E24, O-Benzyl-N-{[6-(2-chlorophenyl)imidazo[1,2-a]pyridin-2-yl]carbonyl}tyrosine]?
Answer: IC50 (human GPR34): ≤ 1000 nM; melting point: 228 °C

Question: Which IC50 (human GPR34) does the source give for `O=C(N[C@@H](Cc1ccc(OCc2ccccc2)cc1)C(=O)O)c1ccc2nc(-c3ccc(Cl)cc3)cn2c1` [Example E25, O-Benzyl-N-{[2-(4-chlorophenyl)imidazo[1,2-a]pyridin-6-yl]carbonyl}tyrosine] here?
Answer: ≤ 1000 nM

Question: What about the melting point of the same compound?
Answer: 278 to 280 °C

Question: For `Cc1c(-c2ccc(Cl)cc2)ccc2nc(C(=O)N[C@@H](Cc3ccc(OCc4ccccc4)cc3)C(=O)O)cn12` [Example E26, O-Benzyl-N-{[6-(4-chlorophenyl)-5-methylimidazo[1,2-a]pyridin-2-yl]carbonyl}tyrosine], which IC50 (human GPR34) is on record?
Answer: ≤ 1000 nM

Question: What about the melting point of the same compound?
Answer: 263 to 264 °C

Question: With `Cc1cc(-c2ccc(Cl)cc2)cn2cc(C(=O)N[C@@H](Cc3ccc(OCc4ccccc4)cc3)C(=O)O)nc12` [Example E27, O-Benzyl-N-{[6-(4-chlorophenyl)-8-methylimidazo[1,2-a]pyridin-2-yl]carbonyl}tyrosine] as the compound, how does the IC50 (human GPR34) read?
Answer: ≤ 1000 nM

Question: What about the melting point of the same compound?
Answer: 249 to 250 °C

Question: Which IC50 (human GPR34) does the source give for `O=C(N[C@@H](Cc1ccc(OCc2ccccc2)cc1)C(=O)O)c1cn2cccc(OCc3ccc(Cl)cc3)c2n1` [Example E28, O-Benzyl-N-({8-[(4-chlorobenzyl)oxy]imidazo[1,2-a]pyridin-2-yl}carbonyl)tyrosine] here?
Answer: ≤ 1000 nM

Question: What about the melting point of the same compound?
Answer: 210 °C

Question: Which IC50 (human GPR34) does the source give for `O=C(N[C@@H](Cc1ccc(OCc2ccccc2)cc1)C(=O)O)c1cn2nc(/C=C/c3ccc(Cl)cc3)ccc2n1` [Example E29, O-Benzyl-N-({6-[(E)-2-(4-chlorophenyl)ethenyl]imidazo[1,2-b]pyridazin-2-yl}carbonyl)tyrosine] here?
Answer: ≤ 1000 nM

Question: And the melting point?
Answer: 256 to 257 °C

Question: What does the source list for `O=C(N[C@@H](Cc1ccc(OCc2ccccc2)cc1)C(=O)O)c1nc2ccc(-c3ccc(Cl)cc3)cn2c1Cl` [Example E37, O-Benzyl-N-{[3-chloro-6-(4-chlorophenyl)imidazo[1,2-a]pyridin-2-yl]carbonyl}tyrosine]?
Answer: IC50 (human GPR34): ≤ 1000 nM; melting point: 242 to 244 °C

Question: With `O=C(N[C@@H](Cc1ccc(OCc2ccccc2)cc1)C(=O)O)c1cn2cc(/C=C/c3ccc(Cl)cc3)ccc2n1` [Example E41, O-Benzyl-N-({6-[(E)-2-(4-chlorophenyl)ethenyl]imidazo[1,2-a]pyridin-2-yl}carbonyl)tyrosine] as the compound, how does the IC50 (human GPR34) read?
Answer: ≤ 1000 nM

Question: What about the melting point of the same compound?
Answer: 267 to 270 °C

Question: Which IC50 (human GPR34) does the source give for `Cc1ccc(/C=C/c2ccc3nc(C(=O)N[C@@H](Cc4ccc(OCc5ccccc5)cc4)C(=O)O)cn3c2)cc1` [Example E42, O-Benzyl-N-({6-[(E)-2-(4-methylphenyl)ethenyl]imidazo[1,2-a]pyridin-2-yl}carbonyl) tyrosine] here?
Answer: ≤ 1000 nM

Question: And the melting point?
Answer: 266 to 267 °C

Question: Which IC50 (human GPR34) does the source give for `CC(C)Oc1ccc(-c2ccc3nc(C(=O)N[C@@H](Cc4ccc(OCc5ccccc5)cc4)C(=O)O)cn3c2)cc1` [Example E45, O-Benzyl-N-{[6-(4-isopropoxyphenyl)imidazo[1,2-a]pyridin-2-yl]carbonyl}tyrosine] here?
Answer: ≤ 1000 nM

Question: What about the melting point of the same compound?
Answer: 263 °C (dec.)

Question: Which results are given for `O=C(N[C@@H](Cc1ccc(OCc2ccccc2F)cc1)C(=O)O)c1cn2ccc(-c3ccc(Cl)cc3)cc2n1` [Example E47, N-{[7-(4-Chlorophenyl)imidazo[1,2-a]pyridin-2-yl]carbonyl}-O-(2-fluorobenzyl)tyrosine]?
Answer: IC50 (human GPR34): ≤ 1000 nM; melting point: 250 to 252 °C

Question: For `O=C(N[C@@H](Cc1ccc(OCc2cccc(F)c2)cc1)C(=O)O)c1cn2ccc(-c3ccc(Cl)cc3)cc2n1` [Example E48, N-{[7-(4-Chlorophenyl)imidazo[1,2-a]pyridin-2-yl]carbonyl}-O-(3-fluorobenzyl)tyrosine], which IC50 (human GPR34) is on record?
Answer: ≤ 1000 nM

Question: What about the melting point of the same compound?
Answer: 248 to 250 °C

Question: For `O=C(N[C@@H](Cc1ccc(OCc2ccc(F)cc2)cc1)C(=O)O)c1cn2ccc(-c3ccc(Cl)cc3)cc2n1` [Example E49, N-{[7-(4-Chlorophenyl)imidazo[1,2-a]pyridin-2-yl]carbonyl}-O-(4-fluorobenzyl)tyrosine], which IC50 (human GPR34) is on record?
Answer: ≤ 1000 nM

Question: What about the melting point of the same compound?
Answer: 255 to 257 °C
